Experimental data reported in patent publication USRE45272E1, “β-glucuronide-linker drug conjugates” (priority 2005, dated 2014).
pIC50: −log10 of the molar value. Where a name gives a salt, the structure may show the parent alone. Read-outs that look alike come from different tables or passages of the source. One block for each molecule: values may come before it. Square brackets hold non-standard residues; d marks the D form. Peptide text beside a SMILES is read from it. * marks the point of attachment. Dolaproine = CO[C@@H]([C@@H]1CCCN1)[C@@H](C)C(=O)O; Dil = CC[C@H](C)[C@H](NC)[C@@H](CC(=O)O)OC; X1 = C[C@@H](N*)[C@@H](O)c1ccccc1; NMeV = CN[C@H](C(=O)O)C(C)C

Experiments:
Format in all cases: cell-based
[1] = test system: 786-O (CD70+, CD30−) renal cell carcinoma cells; assay: In vitro growth inhibition (resazurin), 786-O; conditions: for pIC50: 96 h exposure, resazurin metabolism, vs untreated cells, drug content, read-out: 786-O (CD70+, CD30−) IC50 drug
Procedure: (§1) In vitro growth inhibition. Cells were collected and plated in 96 well black-sided plates at a density of 10,000 cells/well in 150 μL of medium. Serial dilutions of the ADC (50 μL) were added, and incubation was carried out for 92 h at 37° C. After addition of ADC, cultures were incubated to 96 h at 37° C. Resazurin (0.25 mM, 50 μL, Sigma, St. Louis, Mo.) in medium was added and incubation was continued for 4 h. The plates were read on a Fusion HT microplate reader (Packard, Meriden, Conn.) using an excitation wavelength of 525 nm and an emission wavelength of 590 nm. Data from all assays were reduced using GraphPad Prism Version 4 for Windows (GraphPad Software, San Diego, Calif.). The IC50 concentrations compared to untreated control cells were determined using a 4 parameter curve fits.

[2] = test system: Karpas 299 (CD30+, CD70−) ALCL cells; assay: In vitro growth inhibition (resazurin), Karpas 299; conditions: for pIC50: 96 h exposure, resazurin metabolism, vs untreated cells, drug content, read-out: Karpas 299 (CD30+, CD70−) IC50 drug
Procedure: as §1

[3] = test system: Caki-1 (CD70+, CD30−) renal cell carcinoma cells; assay: In vitro growth inhibition (resazurin), Caki-1; conditions: for pIC50: 96 h exposure, resazurin metabolism, vs untreated cells, drug content, read-out: Caki-1 (CD70+, CD30−) IC50 drug
Procedure: as §1

[4] = test system: Caki-1, 786-O and Karpas 299 cell lines; assay: In vitro cytotoxicity, statements across Caki-1, 786-O and Karpas 299; conditions: for pIC50: read-out: IC50 on Caki-1, 786-O and Karpas 299 (all lines)
Procedure: as §1
Results. […] The negative charge associated with the carboxylate group of 1b leads to reduced cytotoxic activity, presumably due to impaired intracellular access.
The ADCs of 9b effectively delivered 1b to the targeted cells. […] Conjugates of doxorubicin drug-linker 17 gave the same general profile with effective cell kill on antigen positive cell lines and specificity values >16-fold.

SMILES: CC[C@H](C)[C@@H]([C@@H](CC(=O)N1CCC[C@H]1[C@H](OC)[C@@H](C)C(=O)N[C@@H](Cc1ccccc1)C(=O)O)OC)N(C)C(=O)[C@@H](NC(=O)[C@@H](NC)C(C)C)C(C)C [Compound 1b, N-methylvaline-valine-dolaisoleuine-dolaproine-phenylalanine] (HELM PEPTIDE1{[meV].V.[CC[C@H](C)[C@@H]([C@@H](CC(=O)[*:2])OC)N(C)[*:1]].[CO[C@H]([C@@H](C)C(=O)[*:2])[C@@H]1CCCN1[*:1]].F}$$$$V2.0)
pIC50 [1]: 6.52
pIC50 [2]: 7.00
pIC50 [3]: 6.57
pIC50 ([4]; statement for all three cell lines): 6.70 to 7.00

SMILES: CC[C@H](C)[C@@H]([C@@H](CC(=O)N1CCC[C@H]1[C@H](OC)[C@@H](C)C(=O)N[C@H](C)[C@@H](O)c1ccccc1)OC)N(C)C(=O)[C@@H](NC(=O)[C@@H](NC)C(C)C)C(C)C [Compound 1a, monomethyl auristatin E] (H-[NMeV]V[Dil][Dolaproine]-X1)
pIC50 [1]: 9.72
pIC50 [2]: 10.05
pIC50 [3]: 9.96

SMILES: COc1cccc2c1C(=O)c1c(O)c3c(c(O)c1C2=O)C[C@@](O)(C(=O)CO)CC3OC1CC(NCCCC(OC(C)=O)OC(C)=O)C(O)C(C)O1 (stereo partly drawn) [Compound 18]
IC50 ([1]; Homo sapiens, 786-0, 96 h, read-out: 786-O (CD70+, CD30−) IC50 drug nM): 0.01 nM
IC50 ([2]; Homo sapiens, KARPAS-299, 96 h, read-out: Karpas 299 (CD30+, CD70−) IC50 drug nM): 0.1 nM
IC50 ([3]; Homo sapiens, CAKI-1, 96 h, read-out: Caki-1 (CD70+, CD30−) IC50 drug nM): 0.04 nM
fold more cytotoxic than doxorubicin (15) ([4]; across Caki-1, 786-O, Karpas 299): 300-6500 fold
pIC50 [4]: > 9.70

pIC50 ([1]; Homo sapiens, 786-0): 7.19
pIC50 ([2]; Homo sapiens, KARPAS-299): 7.54
pIC50 ([3]; Homo sapiens, CAKI-1): 6.96
SMILES: COc1cccc2c1C(=O)c1c(O)c3c(c(O)c1C2=O)C[C@@](O)(C(=O)CO)C[C@@H]3O[C@H]1C[C@H](N)[C@H](O)[C@H](C)O1 [Compound 15, doxorubicin-HCl]
